Results reported in ChEMBL document CHEMBL1149406, “Isolation and cholinesterase-inhibition studies of sterols from Haloxylon recurvum” (Bioorg Med Chem Lett, 2006).

Experiments:
Butyrylcholinesterase = Butyrylcholinesterase (Equus caballus, UniProt Q9N1N9); assay: Inhibitory activity against BuChE from horse serum
Acetylcholinesterase = Acetylcholinesterase (Electrophorus electricus, UniProt O42275); assay: Inhibitory activity against AChE from electric eel
Acetylcholinesterase, sequence (O42275 whole entry): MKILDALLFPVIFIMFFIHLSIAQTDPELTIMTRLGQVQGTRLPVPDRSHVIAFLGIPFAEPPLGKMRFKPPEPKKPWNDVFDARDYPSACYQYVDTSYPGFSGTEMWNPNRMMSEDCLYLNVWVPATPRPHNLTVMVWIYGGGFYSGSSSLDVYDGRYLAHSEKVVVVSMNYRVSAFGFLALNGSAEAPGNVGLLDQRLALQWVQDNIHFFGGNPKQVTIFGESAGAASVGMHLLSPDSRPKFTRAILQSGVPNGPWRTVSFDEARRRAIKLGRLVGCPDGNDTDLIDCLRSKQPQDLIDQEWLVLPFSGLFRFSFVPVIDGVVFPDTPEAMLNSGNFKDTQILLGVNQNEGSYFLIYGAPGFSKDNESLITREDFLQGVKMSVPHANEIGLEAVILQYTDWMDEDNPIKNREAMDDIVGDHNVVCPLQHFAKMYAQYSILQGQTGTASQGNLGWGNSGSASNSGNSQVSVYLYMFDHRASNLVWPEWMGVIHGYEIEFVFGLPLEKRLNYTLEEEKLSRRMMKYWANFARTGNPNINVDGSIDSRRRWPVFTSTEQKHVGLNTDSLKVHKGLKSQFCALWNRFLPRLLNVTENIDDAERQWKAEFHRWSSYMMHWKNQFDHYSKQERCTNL

Butyrylcholinesterase, sequence (Q9N1N9 whole entry): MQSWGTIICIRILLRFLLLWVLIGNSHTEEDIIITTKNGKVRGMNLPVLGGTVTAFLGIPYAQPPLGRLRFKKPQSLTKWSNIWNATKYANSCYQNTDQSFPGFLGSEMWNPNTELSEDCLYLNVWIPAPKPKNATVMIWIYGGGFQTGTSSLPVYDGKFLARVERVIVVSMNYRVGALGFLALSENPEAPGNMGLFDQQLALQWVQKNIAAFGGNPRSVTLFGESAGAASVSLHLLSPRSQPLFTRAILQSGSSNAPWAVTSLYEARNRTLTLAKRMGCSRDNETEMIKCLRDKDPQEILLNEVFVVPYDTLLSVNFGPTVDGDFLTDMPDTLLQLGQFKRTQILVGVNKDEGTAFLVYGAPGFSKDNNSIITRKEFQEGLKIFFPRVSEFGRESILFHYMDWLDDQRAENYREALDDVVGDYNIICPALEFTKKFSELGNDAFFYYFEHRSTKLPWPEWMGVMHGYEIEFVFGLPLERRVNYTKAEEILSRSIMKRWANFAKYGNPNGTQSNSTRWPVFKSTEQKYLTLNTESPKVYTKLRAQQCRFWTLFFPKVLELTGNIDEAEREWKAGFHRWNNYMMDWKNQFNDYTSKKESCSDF

Compound	IC50 (Butyrylcholinesterase)	Ki (Butyrylcholinesterase)	IC50 (Acetylcholinesterase)	Ki (Acetylcholinesterase)
CC[C@H](/C=C/[C@@H](C)[C@H]1CC[C@@H]2[C@]1(C)CC=C1[C@]23C=C[C@]2(C[C@@H](O)CC[C@]12C)OO3)C(C)C	6.9 µM	5 µM	26.4 µM	25.5 µM
CC[C@H](C[C@@H](O)[C@@H](C)[C@H]1CCC2C3CC=C4C[C@@H](O)C[C@H](O)[C@]4(C)C3CC[C@@]21C)C(C)C (some centres undefined) [HALOXYSTEROL A]	4.7 µM	4.5 µM	8.3 µM	7.6 µM
CC[C@H](CC[C@@H](C)[C@H]1CC[C@H]2[C@@H]3CCC4=C[C@@H](O)CC[C@]4(C)[C@H]3CC[C@]12C)C(C)C [LAWSARITOL]	3.9 µM	3.7 µM	15.2 µM	16.1 µM
CC[C@H](C[C@@H](O)[C@@H](C)[C@H]1CCC2C3CCC4=CC(=O)CC[C@]4(C)C3=CC[C@@]21C)C(C)C (some centres undefined) [HALOXYSTEROL C]	17.8 µM	18 µM	1 µM	1.1 µM
CC[C@H](/C=C/[C@@H](C)[C@H]1CC[C@H]2[C@@H]3C=CC4C[C@@H](O)CC[C@]4(C)C3=CC[C@]12C)C(C)C (some centres undefined)	4.5 µM	4.6 µM	19.2 µM	20.6 µM
CCC(CC[C@@H](C)[C@H]1CC[C@H]2[C@@H]3C=CC4(O)C[C@@H](O)CC[C@]4(C)[C@H]3CC[C@]12C)C(C)C (some centres undefined)		4.2 µM		4 µM
CC[C@H](C[C@@H](O)[C@@H](C)[C@H]1CC[C@H]2[C@@H]3C[C@@H](O)[C@@]4(O)C[C@@H](O)C[C@H](O)[C@]4(C)[C@H]3CC[C@]12C)C(C)C	2.5 µM	2.2 µM	17.2 µM	17 µM
CCC(CC[C@@H](C)[C@H]1CC[C@H]2C3=CC(O)C4(O)C[C@@H](O)CC[C@]4(C)[C@H]3CC[C@]12C)C(C)C (some centres undefined)	2 µM	2.5 µM	13.7 µM	12.6 µM
CC[C@H](C[C@@H](O)[C@@H](C)[C@H]1CCC2C3C=CC4=C[C@@H](O)C[C@H](O)[C@]4(C)C3CC[C@@]21C)C(C)C (some centres undefined) [HALOXYSTEROL B]	2.3 µM	2.5 µM	0.89 µM	0.85 µM
